# Key:
# [1] = system: transcription factor Foxo3a localization in oocytes; assay: In vitro culture of gonad in presence of PI3K inhibitor with or without pressurization; Foxo3a immunostaining; assay type: cell-based, mouse; settings: 25 μM Ly, oocytes of 20 μm or smaller, 16th day; for proportion of oocytes in which Foxo3a was localized in the nucleus: FIG. 8A; for proportion of oocytes in which Foxo3a was localized in the cytosol: FIG. 8B
# Method: Specifically, first, a Transwell-COL membrane (3.0 μm pore size, 24 mm diameter) (manufactured by Corning Inc.) was set in each well of a 6-well plate, and the gonad collected in (1) were placed on a membrane. Then, 1.3 mL of medium was added to each well and culture was performed for 16 days. For artificial pressurization, AGP-3001S (registered trademark) manufactured by STREX was used to apply a hydrostatic pressure of 33.33 kPa, during the period from the 6th day to the 16th day from the start of the culture. In addition, Ly was added to the medium such that a final concentration is 25 μM, during the period from the 6th day to the 16th day from the start of the culture. Also, the medium was cultured in αM2 for 4 days and then cultured in S10. In addition, ICI 182,780 (7α,17β-[9-[(4,4,5,5,5-pentafluoropentyl)sulfinyl]nonyl]estra-1,3,5(10)-triene-3,17-diol) (manufactured by Tocris Bioscience) which is an estrogen receptor antagonist was added during the period from 5th to 9th day after the start of culture such that a final concentration in the medium is 500 nM. About half of the medium was replaced with anew medium every other day. As a control, those cultured in the same manner in the presence of Ly without pressurization were also prepared. In the gonad cultured in (2), a tissue section of the gonad was prepared by using the same method as in (1) of Reference Example 1. Then, the tissue section of the gonad obtained in (3) was immunohistochemically stained using the same method as in (4) of Example 1. […] In FIG. 7, “No Press (0 kPa)” is a gonad cultured in the presence of Ly without pressurization. “Press (33.3 kPa)” is a gonad cultured under the artificially pressurized condition and in the presence of Ly. a and e are staining images for CFP expressed under the control of the expression of the germ cell marker Stella. b and f are immunostaining images using an antibody against a transcription factor Foxo3α. c and g are immunostaining images using an antibody against the MVH of the germ cell marker. d is an image in which a nuclear-staining image using DAPI is superimposed on the staining images in a to c. h is an image in which a nuclear-staining image using DAPI is superimposed on the staining images in e to g. A scale bar represents 10 μm. Further, FIG. 8A is a graph obtained by calculating a proportion of oocytes in which the transcription factor Foxo3a is localized in the nucleus, from the immunostaining image using the antibody against the transcription factor Foxo3a in FIG. 7. FIG. 8B is a graph obtained by calculating a proportion of oocytes in which the transcription factor Foxo3a is localized in a cytosol, from the immunostaining image using the antibody against the transcription factor Foxo3a in FIG. 7.
# [2] = system: oocytes in gonad of a 12.5 day-old fetus after fertilization; assay: In vitro culture of gonad in presence of PI3K inhibitor; oocyte size counted by Stella-CFP fluorescence; assay type: cell-based, mouse; settings: 25 μM Ly from 6th to 16th day of culture; observed on 16th day; FIG. 6B
# Method: First, a Transwell-COL membrane (3.0 μm pore size, 24 mm diameter) (manufactured by Corning Inc.) was set in each well of a 6-well plate, and the gonad collected in (1) were placed on a membrane. Then, 1.3 mL of medium was added to each well and culture was performed for 16 days. Also, the medium was cultured in αM2 for 4 days and then cultured in S10. In addition, the PI3K inhibitor LY294002 (hereinafter, may be abbreviated as “Ly”) (manufactured by Cell Signaling Technology, model number: 9901) was added to the medium such that a final concentration is 25 μM, during the period from the 6th day to the 16th day from the start of the culture. In addition, ICI 182,780 (7α,17β-[9-[(4,4,5,5,5-pentafluoropentyl)sulfinyl]nonyl]estra-1,3,5(10)-triene-3,17-diol) (manufactured by Tocris Bioscience) which is an estrogen receptor antagonist was added during the period from 5th to 9th day after the start of culture such that a final concentration in the medium is 500 nM. About half of the medium was replaced with a new medium every other day. In addition, as a control, those cultured in the same manner without adding Ly (cultured under a steady condition) were also prepared. The gonad on the 16th day from the start of culture were observed under a fluorescent stereomicroscope (manufactured by Olympus Corporation, model number: SZX16). In FIG. 6A, “Control” is a gonad cultured under a steady condition (in the absence of Ly), and “Ly” is a gonad cultured in the presence of the PI3K inhibitor LY294002. A scale bar represents 50 μm. Further, FIG. 6B is a graph in which the number of oocytes was counted using the expression of Stella-CFP as an index in FIG. 6A, and proportions of the oocytes smaller than 20 μm, 20 μm or larger and 50 μm or smaller, and larger than 50 μm were calculated.
# [3] = artificially pressurized condition (33.33 kPa)
structure (smiles),measurement,setting,value
"O=c1cc(N2CCOCC2)oc2c(-c3ccccc3)cccc12 [Ly, LY294002]",proportion of oocytes in which Foxo3a was localized in the nucleus,[1]; [3],about 82%
same,proportion of oocytes in which Foxo3a was localized in the cytosol,[1]; [3],about 18%
same,proportion of oocytes in which Foxo3a was localized in the nucleus,[1]; without pressurization (0 kPa),about 52%
same,proportion of oocytes in which Foxo3a was localized in the cytosol,[1]; without pressurization (0 kPa),about 48%
same,proportion of oocytes having a size larger than 50 μm,[2],about 23%
same,proportion of oocytes having a size smaller than 20 μm in total oocytes,[2],about 29%
same,proportion of oocytes with a size of 20 μm or larger and 50 μm or smaller,[2],about 48%

# Source: patent US12054747B2, “Method of differentiating primordial germ cell into primordial follicle in vitro” (KYUSHU UNIVERSITY, NATIONAL UNIVERSITY CORPORATION, priority 2018, dated 2024)
